Assay results: ChEMBL document CHEMBL1201861, “Genomics of Drug Sensitity in Cancer screening data, Wellcome Trust Sanger Institute”

How the values were obtained:
Test in all cases: cells
Type in all cases: functional, cell-based
Settings in all cases: Homo sapiens
[1] = test system: KP-4;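 note: human KP-4 cells, with growth inhibition read out through a cell viability assay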
Description: SANGER: Inhibition of human KP-4 cell growth in a cell viability assay.

[2] = test system: HMV-2 cell line;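 note: growth inhibition of HMV-II cells, read out with a cell viability assay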
Description: SANGER: Inhibition of human HMV-II cell growth in a cell viability assay.

[3] = test system: NCI-H630;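 note: growth inhibition of NCI-H630 cells, read out with a cell viability assay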
Description: SANGER: Inhibition of human NCI-H630 cell growth in a cell viability assay.

[4] = test system: SK-MES-1;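 note: growth inhibition of human SK-MES-1 cells, read out with a cell viability assay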
Description: SANGER: Inhibition of human SK-MES-1 cell growth in a cell viability assay.

[5] = test system: NCI-H661;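 note: cell viability assay read-out, IC50 being the concentration that inhibits growth of the cells by half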
Description: SANGER: Inhibition of human NCI-H661 cell growth in a cell viability assay.

[6] = test system: RVH-421
Description: SANGER: Inhibition of human RVH-421 cell growth in a cell viability assay.

[7] = test system: HCC1954;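 note: growth inhibition of human HCC1954 cells, read out with a cell viability assay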
Description: SANGER: Inhibition of human HCC1954 cell growth in a cell viability assay.

[8] = test system: BFTC-909
Description: SANGER: Inhibition of human BFTC-909 cell growth in a cell viability assay.

[9] = test system: A2058;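 note: reduction of A2058 cell growth, read out with a viability assay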
Description: SANGER: Inhibition of human A2058 cell growth in a cell viability assay.

[10] = test system: OAW-42;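 note: growth inhibition of OAW-42 cells, read out with a cell viability assay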
Description: SANGER: Inhibition of human OAW-42 cell growth in a cell viability assay.

[11] = test system: RPMI-7951
Description: SANGER: Inhibition of human RPMI-7951 cell growth in a cell viability assay.

[12] = test system: G-401
Description: SANGER: Inhibition of human G-401 cell growth in a cell viability assay.

[13] = test system: EFO-27;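 note: growth inhibition of EFO-27 cells, read out with a cell viability assay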
Description: SANGER: Inhibition of human EFO-27 cell growth in a cell viability assay.

[14] = test system: WM-115
Description: SANGER: Inhibition of human WM-115 cell growth in a cell viability assay.

[15] = test system: SW1573;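 note: growth inhibition of SW1573 cells, read out with a cell viability assay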
Description: SANGER: Inhibition of human SW1573 cell growth in a cell viability assay.

[16] = test system: D-392MG
[17] = test system: SKG-IIIa;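 note: cell growth inhibition, read out with a cell viability assay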
Description: SANGER: Inhibition of human SKG-IIIa cell growth in a cell viability assay.

[18] = test system: A204;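 note: growth inhibition of human A204 cells, read out with a cell viability assay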
Description: SANGER: Inhibition of human A204 cell growth in a cell viability assay.

[19] = test system: NCI-N87;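 note: growth inhibition of human NCI-N87 cells, read out with a cell viability assay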
Description: SANGER: Inhibition of human NCI-N87 cell growth in a cell viability assay.

[20] = test system: UACC-62;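 note: growth inhibition of human UACC-62 cells, read out by a cell viability assay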
Description: SANGER: Inhibition of human UACC-62 cell growth in a cell viability assay.

[21] = test system: NCI-H28;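 note: growth inhibition of human NCI-H28 cells, read out as cell viability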
Description: SANGER: Inhibition of human NCI-H28 cell growth in a cell viability assay.

[22] = test system: HCC70;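 note: cell viability assay measuring how strongly the compound suppresses proliferation of HCC70 cells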
Description: SANGER: Inhibition of human HCC70 cell growth in a cell viability assay.

[23] = test system: S-117
Description: SANGER: Inhibition of human S-117 cell growth in a cell viability assay.

[24] = test system: HuP-T3;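 note: HuP-T3 cell growth inhibition, read out with a cell viability assay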
Description: SANGER: Inhibition of human HuP-T3 cell growth in a cell viability assay.

[25] = test system: RMG-I;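 note: growth inhibition of human RMG-I cells, read out with a cell viability assay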
Description: SANGER: Inhibition of human RMG-I cell growth in a cell viability assay.

[26] = test system: P12-Ichikawa
[27] = test system: T98G;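 note: growth inhibition of T98G cells, read out by a cell viability assay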
Description: SANGER: Inhibition of human T98G cell growth in a cell viability assay.

[28] = test system: CAL-62;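 note: growth inhibition of CAL-62 cells, read out with a cell viability assay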
Description: SANGER: Inhibition of human CAL-62 cell growth in a cell viability assay.

[29] = test system: NCI-H650;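 note: growth inhibition of NCI-H650 cells, read out by a viability assay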
Description: SANGER: Inhibition of human NCI-H650 cell growth in a cell viability assay.

[30] = test system: AU565;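 note: cell viability assay measuring growth inhibition of human AU565 cells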
Description: SANGER: Inhibition of human AU565 cell growth in a cell viability assay.

[31] = test system: NCI-H2405;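 note: growth inhibition of the human cell line, read out with a cell viability assay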
Description: SANGER: Inhibition of human NCI-H2405 cell growth in a cell viability assay.

[32] = test system: AGS;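 note: growth inhibition of AGS cells, determined with a cell viability assay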
Description: SANGER: Inhibition of human AGS cell growth in a cell viability assay.

[33] = test system: MIA PaCa-2;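 note: growth inhibition of MIA PaCa-2 cells, read out with a cell viability assay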
Description: SANGER: Inhibition of human MIA-PaCa-2 cell growth in a cell viability assay.

[34] = test system: HSC-4;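 note: growth inhibition of human HSC-4 cells, read out with a cell viability assay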
Description: SANGER: Inhibition of human HSC-4 cell growth in a cell viability assay.

[35] = test system: SW13;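 note: IC50 is inhibition of SW13 cell growth, read out with a cell viability assay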
Description: SANGER: Inhibition of human SW13 cell growth in a cell viability assay.

[36] = test system: SCC-25;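 note: growth inhibition of SCC-25 cells, measured with a cell viability assay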
Description: SANGER: Inhibition of human SCC-25 cell growth in a cell viability assay.

[37] = test system: NCI-H2087;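 note: growth inhibition determined with a cell viability readout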
Description: SANGER: Inhibition of human NCI-H2087 cell growth in a cell viability assay.

[38] = test system: SN12C;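 note: growth inhibition of human SN12C cells, measured by a cell viability assay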
Description: SANGER: Inhibition of human SN12C cell growth in a cell viability assay.

[39] = test system: PANC-03-27
Description: SANGER: Inhibition of human PANC-03-27 cell growth in a cell viability assay.

[40] = test system: KOSC-2;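 note: growth inhibition of KOSC-2 cells, read out by a cell viability assay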
Description: SANGER: Inhibition of human KOSC-2 cell growth in a cell viability assay.

[41] = test system: MDA-MB-361
[42] = test system: NCI-H810;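 note: IC50 reflects inhibition of cancer cell line growth, read out with a cell viability assay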
Description: SANGER: Inhibition of human NCI-H810 cell growth in a cell viability assay.

[43] = test system: NB17;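 note: growth inhibition of NB17 cells, read out with a cell viability assay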
Description: SANGER: Inhibition of human NB17 cell growth in a cell viability assay.

[44] = test system: CAMA-1;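 note: growth inhibition of CAMA-1 cells, read out with a cell viability assay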
Description: SANGER: Inhibition of human CAMA-1 cell growth in a cell viability assay.

[45] = test system: Kasumi 1;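 note: growth inhibition of human Kasumi-1 cells, read out by a cell viability assay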
Description: SANGER: Inhibition of human KASUMI-1 cell growth in a cell viability assay.

[46] = test system: CAL-85-1;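 note: growth inhibition of human CAL-85-1 cells, read out with a cell viability assay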
Description: SANGER: Inhibition of human CAL-85-1 cell growth in a cell viability assay.

[47] = test system: DK-MG;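 note: growth inhibition of DK-MG cells, read out with a cell viability assay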
Description: SANGER: Inhibition of human DK-MG cell growth in a cell viability assay.

[48] = test system: CAL-51;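 note: human CAL-51 cell line, growth inhibition read out via a cell viability assay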
Description: SANGER: Inhibition of human CAL-51 cell growth in a cell viability assay.

[49] = test system: COLO-679
Description: SANGER: Inhibition of human COLO-679 cell growth in a cell viability assay.

[50] = test system: OAW-28;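 note: growth inhibition of OAW-28 cells, read out with a cell viability assay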
Description: SANGER: Inhibition of human OAW-28 cell growth in a cell viability assay.

Measured: IC50

NC(=O)c1ncn([C@@H]2O[C@H](COP(=O)(O)O)[C@@H](O)[C@H]2O)c1N
357 µM: [30]
1230 µM: [36]
1270 µM: [22]
1680 µM: [13]
1040 µM: [21]
354 µM: [44]
1490 µM: [19]
1310 µM: [41]
1350 µM: [24]
874 µM: [34]
1580 µM: [11]
1470 µM: [26]
526 µM: [40]
not listed: [45] | [46] | [47] | [48] | [49] | [50]
> 2000 µM: all other assays above

C[C@]1(c2nc3c(C(N)=O)cccc3[nH]2)CCCN1 [VELIPARIB]
> 5 µM: all assays above

COc1cc(Nc2c(C#N)cnc3cc(OCCCN4CCN(C)CC4)c(OC)cc23)c(Cl)cc1Cl [BOSUTINIB]
0.723 µM: [45]
1.69 µM: [13]
0.738 µM: [35]
0.172 µM: [34]
1.32 µM: [40]
> 2 µM: all other assays above

C[C@]12O[C@H](C[C@]1(O)CO)n1c3ccccc3c3c4c(c5c6ccccc6n2c5c31)CNC4=O [LESTAURTINIB]
0.758 µM: [36]
0.593 µM: [16]
0.203 µM: [34]
0.249 µM: [8]
1.03 µM: [13]
1.07 µM: [15]
0.245 µM: [9]
1.82 µM: [31]
0.327 µM: [27] | [40]
0.398 µM: [38]
0.382 µM: [43]
0.677 µM: [29]
0.617 µM: [35]
0.383 µM: [49]
1.1 µM: [47]
0.439 µM: [12]
0.255 µM: [17]
0.0691 µM: [32]
1.25 µM: [41]
0.0191 µM: [45]
0.244 µM: [6]
0.862 µM: [33]
0.318 µM: [11]
0.995 µM: [42]
0.568 µM: [1]
0.0465 µM: [4]
1.04 µM: [44]
0.966 µM: [24]
0.342 µM: [39]
0.254 µM: [28]
0.152 µM: [18]
0.0262 µM: [26]
0.278 µM: [48]
0.349 µM: [10]
1.65 µM: [30]
0.0558 µM: [2]
1.12 µM: [20] | [23]
0.833 µM: [21]
> 2 µM: all other assays above

Cn1cc(/C=C2\C(=O)Nc3cccnc32)c2ccccc21
1.95 µM: [34]
> 2 µM: all other assays above
